Laboratory results published in patent US6861432B2, “Piperazine derivatives that destabilize androgen receptors” (Schering Aktiengesellschaft, priority 2001, dated 2005).

Key:
LNCaP cells = experiment: Model 2: Inhibition of the proliferation of LNCaP cells (crystal violet assay; antagonism with 0.1 nM R1881, agonism without); format: cell-based, human; details: for IC50: LNCaP proliferation in the presence of 0.1 nM R1881, 7-8 days, read-out: IC50 [10^−7 M]
MaTu cells = experiment: Model 3: Proliferation of non-prostate cells, MaTu; format: cell-based, human; details: 10 μM, 3-day treatment; percent of cell growth of solvent control
Experimental: (§1) To examine the growth-inhibiting action of test substances in cells that are not of prostatic origin, MaTu cells, MaTu/Adr cells, HaCaT cells and A431 cells were treated with test substances, whereby
(§2) Depending on the cell line, 1000-4000 cells/well were grown in RPMI 1640 medium (A431; MaTu and MaTu/Adr) or DMEM/HAM'SF12 medium (HaCaT) without phenol red with 2 mmol of L-glutamine and 10% CCS, and after a 24-hour incubation, they were treated with various concentrations of test substances diluted in culture medium. After a 3-day treatment period, the number of cells was determined by crystal violet assay, as in Model 2. The solvent control contained 0.1% ethanol.
(§3) The substances were tested at a concentration of 10 μM, and the data correspond to the proportion, in percent, of the cell growth of the solvent control. It turns out that the test substances exerted no inhibitory action on the four different cell lines or, in individual cases, only a slight inhibitory action.

MaTu/Adr cells = experiment: Model 3: Proliferation of non-prostate cells, MaTu/Adr; format: cell-based, human; details: 10 μM, 3-day treatment, percent of cell growth of solvent control
Experimental: as §1, §2, §3

A431 cells = experiment: Model 3: Proliferation of non-prostate cells, A431; format: cell-based, human; details: 10 μM, 3-day treatment, percent of cell growth of solvent control
Experimental: as §1, §2, §3

HaCaT cells = experiment: Model 3: Proliferation of non-prostate cells, HaCaT; format: cell-based, human; details: 10 μM, 3-day treatment, percent of cell growth of solvent control
Experimental: as §1, §2, §3

seminal vesicles = experiment: Model 4: Antiandrogenic action on testosterone-stimulated growth of accessory sexual glands of castrated mice; format: in vivo; details: testosterone propionate 0.03 mg/mouse, test substance 2 × 30 mg/kg s.c., 7 days, CPA 30 mg/kg s.c., bicalutamide from preceding tests
Experimental: The function and the size of accessory sexual glands (prostate and seminal vesicles) depend on androgens. In castrated animals, a growth of these (organs is induced by androgen administration. The simultaneous treatment with antiandrogens inhibits this growth, depending on the dose.
To examine the test substances, the mice were castrated. The treatment with testosterone propionate (0.03 mg/mouse) and the test substances (formulated 2×daily 30 mg/kg s.c. in benzyl benzoate-castor oil (10:90)) was on the same day. The treatment was carried out over 7 days and at the end of the test, the weights of the seminal vesicles and prostates were determined. The inhibition, in percent, of the seminal vesicle growth was calculated relative to the control groups (with and without testosterone). As a reference substance, cyproterone acetate (30 mg/kg s.c.) was used.

LNCaP prostate cancers = experiment: Model 5: Growth of human prostate cancer xenografts in vivo, LNCaP; details: hairless mice with testosterone pellets, 2 × daily s.c. 30 mg/kg, FIG. 1
From the text: (§4) In this invention, the action of Example 117 according to the invention: 4-[2,5-dihydro-3-methyl-4-[4-[4-(methylsulfonyl)piperazin-1-yl]butyl]-2,5-dioxo-1H-pyrrol-1-yl]-2-(trifluoromethyl)benzonitrile on the tumor growth in vivo was studied by means of mouse-xenograft modules, in which the compound according to the invention was continuously administered subcutaneously.
(§5) The CWR22 tumor model [M. A. Wainstein, F. He, D. Robinson, H. J. Kung, S. Schwartz, J. M. Giaconia, N. L. Edgehouse, T. P. Pretlow, D. R. Bodner, E. D. Kursh, Cancer Res. 1994, 1; 54(23), 6049-52] is a hormone-dependent human prostate carcinoma model. The tumor model was established and further propagated by “scrial passaging” of prostate cancer tissue, which was removed during an OP in immunodeficient hairless mice. The androgen-dependent LNCaP prostate cancer model was also established from a patient tumor. This tumor model grows both in cell culture and as a xenotransplant on immunodeficient mice (Culig, Hoffman Brit. J. Cancer, 1999, 242-251). For therapy tests, 6-week-old male hairless mice (NMRI mice, M&B, Bornholdtgard, Denmark) were supplemented with testosterone pellets (12.5 mg, 90-day release; IRA, Sarasota, Fla.). Either LNCaP cells (1.5×10^6 cells) or small CWR22 tumor fragments (2×2 mm) were implanted subcutaneously in the left flank of the animals. After the tumors reached a size of 20-25 mm^2, the treatment with the invention substance was begun. [M. A. Wainstein, F. He, D. Robinson, H. J. Kung, S. Schwartz, J. M. Giaconia, N. L. Edgehouse, T. P. Pretlow, D. R. Bodner, E. D. Kursch, Cancer Res. 1994, 1; 54(23), 6049-52].

CWR22 prostate cancers = experiment: Model 5: Growth of human prostate cancer xenografts in vivo, CWR22; details: hairless mice with testosterone pellets, 2 × daily s.c. 30 mg/kg, FIG. 2
From the text: as §4, §5

androgen receptor = molecular target: T1, androgen receptor (Homo sapiens, UniProt P10275, T878A); experiment: cell-based; details: LNCaP, 48 h; for remaining activity at 10 µM: read-out: AR Content [%] At 10 μM; for remaining activity at 1 µM: read-out: AR Content [%] At 1 μM
T1 construct: 2*10^6 LNCaP cells in 6 ml of RPMI 1640 without phenol red are grown; endogenous in cells; host or cells: LNCaP (human prostate cell line)
T1 sequence (P10275 1-920 T878A): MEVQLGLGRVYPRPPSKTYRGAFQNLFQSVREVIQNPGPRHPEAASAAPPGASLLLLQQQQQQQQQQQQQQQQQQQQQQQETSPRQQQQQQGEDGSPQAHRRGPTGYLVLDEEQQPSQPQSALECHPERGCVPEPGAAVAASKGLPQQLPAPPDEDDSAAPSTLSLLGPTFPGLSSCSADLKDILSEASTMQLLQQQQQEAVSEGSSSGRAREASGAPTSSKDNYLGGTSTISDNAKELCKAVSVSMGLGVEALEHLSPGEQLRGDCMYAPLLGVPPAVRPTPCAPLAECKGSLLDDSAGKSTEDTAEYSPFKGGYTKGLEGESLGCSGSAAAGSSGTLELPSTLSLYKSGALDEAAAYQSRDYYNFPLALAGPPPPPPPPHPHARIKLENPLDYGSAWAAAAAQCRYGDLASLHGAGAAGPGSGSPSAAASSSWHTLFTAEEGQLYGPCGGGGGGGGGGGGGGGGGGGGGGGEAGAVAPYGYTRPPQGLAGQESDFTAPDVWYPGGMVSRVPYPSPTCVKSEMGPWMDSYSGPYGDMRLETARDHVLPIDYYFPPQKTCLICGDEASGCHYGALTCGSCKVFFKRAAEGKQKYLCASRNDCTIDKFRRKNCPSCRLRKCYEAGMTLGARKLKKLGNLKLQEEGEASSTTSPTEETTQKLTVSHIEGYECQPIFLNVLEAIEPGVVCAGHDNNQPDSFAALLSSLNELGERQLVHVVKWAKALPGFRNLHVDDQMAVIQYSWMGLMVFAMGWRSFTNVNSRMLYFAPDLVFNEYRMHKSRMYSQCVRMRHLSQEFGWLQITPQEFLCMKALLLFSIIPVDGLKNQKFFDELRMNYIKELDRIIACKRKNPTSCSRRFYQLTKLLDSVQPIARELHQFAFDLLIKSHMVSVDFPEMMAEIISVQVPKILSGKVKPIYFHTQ

[1] = listed as invention substance, 30 mg/kg
[2] = listed as substance B, 30 mg/kg

Compound: CC(O)(CS(=O)(=O)c1ccc(F)cc1)C(=O)Nc1ccc(C#N)c(C(F)(F)F)c1 (centres unmarked) [Bicalutamide, N-[4-cyano-3-(trifluoromethyl)phenyl]-3-[(4-fluorophenyl)sulfonyl]-2-hydroxy-2-methylpropanamide, reference compound]
- inhibition at 1 µM (LNCaP cells; Homo sapiens, LNCaP, LNCaP proliferation, 1 μM substance, compared to cell growth in the presence of 0.1 nM R1881): 85%
- IC50 (LNCaP cells; Homo sapiens): 380 nM
- % Inhibition at 1 μM (LNCaP cells; LNCaP proliferation, 1 μM substance, compared to cell growth in the presence of 0.1 nM R1881): 84.6%
- Proliferation in the Cell Line MaTu (MaTu cells): 97 ± 3%
- Proliferation in the Cell Line MaTu/Adr (MaTu/Adr cells): 84 ± 6%
- Proliferation in the Cell Line MaTu/Adr (MaTu/Adr cells; listed as bicalutamide): slight inhibition
- Proliferation in the Cell Line A431 (A431 cells): 89 ± 7%
- Proliferation in the Cell Line A431 (A431 cells; listed as bicalutamide): slight inhibition
- Proliferation in the Cell Line HaCaT (HaCaT cells): 92 ± 3%
- Proliferation in the Cell Line HaCaT (HaCaT cells; listed as bicalutamide): slight inhibition
- % Inhibition of the MSB Growth (seminal vesicles): 86%
- growth inhibition of LNCaP prostate cancers (LNCaP prostate cancers): growth inhibition
- growth inhibition of CWR22 prostate cancers (CWR22 prostate cancers): growth inhibition

Compound: CC1=C(CCCCN2CCN(C(=O)c3ccccc3Cl)CC2)C(=O)N(c2ccc(C#N)c(C(F)(F)F)c2)C1=O [Example 90, 4-[3-[4-[4-(2-Chlorobenzoyl)piperazin-1-yl]butyl]-2,5-dihydro-4-methyl-2,5-dioxo-1H-pyrrol-1-yl]-2-(trifluoromethyl)benzonitrile]
- remaining activity at 10 µM (androgen receptor): 34%
- Proliferation in the Cell Line MaTu (MaTu cells): 96 +/− 3%
- Proliferation in the Cell Line MaTu/Adr (MaTu/Adr cells): 80 +/− 2%
- Proliferation in the Cell Line A431 (A431 cells): 98 +/− 7%
- Proliferation in the Cell Line HaCaT (HaCaT cells): 102 +/− 12%

Compound: CC1=C(CCCCN2CCN(S(C)(=O)=O)CC2)C(=O)N(c2ccc(C#N)c(C(F)(F)F)c2)C1=O [Example 117, 4-[2,5-Dihydro-3-methyl-4-[4-[4-(methylsulfonyl)piperazin-1-yl]butyl]-2,5-dioxo-1H-pyrrol-1-yl]-2-(trifluoromethyl)benzonitrile]
- remaining activity at 1 µM (androgen receptor): 57%
- remaining activity at 10 µM (androgen receptor): 36%
- Proliferation in the Cell Line MaTu (MaTu cells): 103 ± 10%
- Proliferation in the Cell Line MaTu/Adr (MaTu/Adr cells): 94 ± 4%
- Proliferation in the Cell Line A431 (A431 cells): 100 ± 5%
- Proliferation in the Cell Line HaCaT (HaCaT cells): 104 ± 6%
- growth inhibition of LNCaP prostate cancers (LNCaP prostate cancers; [1]): considerable growth inhibition
- growth inhibition of LNCaP prostate cancers (LNCaP prostate cancers; [2]): superior in comparison to treatment with the antiandrogen bicalutamide
- growth inhibition of CWR22 prostate cancers (CWR22 prostate cancers; [1]): considerable growth inhibition
- growth inhibition of CWR22 prostate cancers (CWR22 prostate cancers; [2]): superior in comparison to treatment with the antiandrogen bicalutamide

Compound: COc1ccccc1C(=O)N1CCN(CCCCCCC2=C(C)C(=O)N(c3ccc(C#N)c(C(F)(F)F)c3)C2=O)CC1 [Example 248, 4-[2,5-Dihydro-3-[6-[4-(2-methoxybenzoyl)piperazin-1-yl]hexyl]-4-methyl-2,5-dioxo-1H-pyrrol-1-yl]-2-(trifluoromethyl)benzonitrile]
- remaining activity at 1 µM (androgen receptor): 51%
- remaining activity at 10 µM (androgen receptor): 22%
- IC50 (LNCaP cells; Homo sapiens): 250 nM
- Proliferation in the Cell Line MaTu (MaTu cells): 98 +/− 4%
- Proliferation in the Cell Line MaTu/Adr (MaTu/Adr cells): 88 +/− 4%
- Proliferation in the Cell Line A431 (A431 cells): 102 +/− 5%
- Proliferation in the Cell Line HaCaT (HaCaT cells): 104 +/− 7%

Compound: CC1=C(CCCCCCN2CCN(C(=O)Nc3ccccc3)CC2)C(=O)N(c2ccc(C#N)c(C(F)(F)F)c2)C1=O [Example 315, 4-[6-[1-[4-Cyano-3-(trifluoromethyl)phenyl]-2,5-dihydro-4-methyl-2,5-dioxo-1H-pyrrol-3-yl]hexyl]-N-phenylpiperazine-1-carboxamide]
- remaining activity at 10 µM (androgen receptor): 52%
- IC50 (LNCaP cells; Homo sapiens): 380 nM
- Proliferation in the Cell Line MaTu (MaTu cells): 95 +/− 7%
- Proliferation in the Cell Line MaTu/Adr (MaTu/Adr cells): 90 +/− 10%
- Proliferation in the Cell Line A431 (A431 cells): 95 +/− 5%
- Proliferation in the Cell Line HaCaT (HaCaT cells): 102 +/− 6%

Compound: CCS(=O)(=O)N1CCN(CCCCCN2C(=S)N(c3ccc(C#N)c(C(F)(F)F)c3)C(=O)C2(C)C)CC1 [Example 629, 4-[3-[5-[4-(Ethylsulfonyl)piperazin-1-yl]pentyl]-4,4-dimethyl-5-oxo-2-thioxoimidazolidin-1-yl]-2-(trifluoromethyl)benzonitrile]
- remaining activity at 1 µM (androgen receptor): 54%
- IC50 (LNCaP cells; Homo sapiens): 140 nM
- % Inhibition of the MSB Growth (seminal vesicles): 98%
